Results published in US20120082647A1, “INTERFERON-BETA FOR USE AS MONOTHERAPY OR IN COMBINATION WITH OTHER CANCER THERAPIES” (priority 2010, published 2012).

Columns and labels:
[1] = test system: ERK phosphorylation; test: ERK phosphorylation in SK-MEL-1 tumors (western blot); assay type: in vivo, nude mice; conditions: SK-MEL-1 tumors removed 8 hours post last dose; FIG. 4
Procedure: Athymic nude mice were inoculated with 2×10^6 SK-MEL-1 human melanoma cells (1 injection in flank; 1 injection per mouse) and 100-200 cubic mm tumors were established. pegylated IFN β-1a was provided in 20 mM acetic acid/sodium acetate at a pH of 4.8 and 150 mM arginine/HCl containing 15 mg/mL human serum albumin (HSA). HSA was used as a control and administered at a concentration of 15 mg/mL. Mice (10 per group) were randomized and treated with either:
i. PEG400 (once a day (QD) for 14 days) and pegylated Interferon-beta-1a (10 μg once a week (QW) for 3 weeks); ii. PD325901 (15 mg/kg once a day (QD) for 14 days) and pegylated Interferon-beta-1a (10 μg once a week (QW) for 3 weeks); iii. PEG400 (once a day (QD) for 14 days) and (HSA) (QW for 3 weeks); iv. PD325901 (15 mg/kg once a day (QD) for 14 days) and HSA (QW for 3 weeks).
Tumors were measured every 3 days using calipers and volume was calculated for a prolate spheroid. The identity of the vehicle control for pegylated interferon-beta-1a vehicle (HSA) and pegylated Interferon-beta-1a was blinded. Tumors were removed 8 hours post last dose and frozen for ERK phosphorylation analysis.

[2] = test system: SK-MEL-1 human melanoma cells; test: SK-MEL-1 melanoma tumor volume in nude mice; assay type: in vivo; conditions: SK-MEL-1 tumor volume; PD325901 15 mg/kg QD 14 days, pegylated Interferon-beta-1a 10 μg QW 3 weeks
Procedure: Tumors were measured every 3 days using calipers and volume was calculated for a prolate spheroid, defined as:
where L equals the major diameter and W equals the minor diameter.

[3] = test system: MDA-MB-231 breast carcinoma cells; test: MDA-MB-231 breast carcinoma tumor volume in SCID mice; assay type: in vivo; conditions: paclitaxel 25 mg/kg I.P. q4d x 3, pegylated interferon beta 1a 0.4 to 1.6 mg/kg SC BIW
Procedure: 8-10 week old SCID mice from Charles River Labs were inoculated subcutaneously with 5×10^6 MDA-MB-231 breast carcinoma cells with 50% matrigel in the flank region. When the average tumor volumes reached approximately 200 mm^3 the tumor-bearing mice were randomized to treatment groups. Pegylated IFN-1a was provided in 20 mM acetic acid/sodium acetate at a pH of 4.8 and 150 mM arginine/HCl (4.8A buffer). Paclitaxel was provided in a Cremophor Ethanol Saline mixture (CES buffer).

Compound | ERK phosphorylation compared to vehicle and pegylated Interferon-beta-1a treated groups [1] | difference between estimates of least square means between treatment groups and vehicle control group [2] | inhibition of tumor growth, single agent versus vehicle controls [3]
O=C(NOC[C@H](O)CO)c1ccc(F)c(F)c1Nc1ccc(I)cc1F [PD325901, N-[(2R)-2,3-dihydroxypropoxy]-3,4-difluoro-2-[(2-fluoro-4-iodo-phenyl)amino]benzamide] | significant inhibition of ERK phosphorylation | −4.52 | 
CC(=O)O[C@H]1C(=O)[C@@]2(C)[C@H]([C@H](OC(=O)c3ccccc3)[C@]3(O)C[C@H](OC(=O)[C@H](O)[C@@H](NC(=O)c4ccccc4)c4ccccc4)C(C)=C1C3(C)C)[C@]1(OC(C)=O)CO[C@@H]1C[C@@H]2O [paclitaxel] |  |  | greater inhibition of tumor growth compared to mice treated with vehicle controls
